Test results from US10894794B1, “Substituted [1,2,4]triazolo[4,3-a]pyrazines as antidiabetics” (King Abdulaziz University, priority 2019, dated 2021).
Marks after values point to notes of the source that are not given here.

Legend:
Assay type in all cases: in vivo
[1] = system: overnight fasted diabetic mice; test: OGTT after multiple doses (6 consecutive days); conditions: for AUC in OGTT, % change from diabetic control / AUC in OGTT, Δ from diabetic control / Relative potency to sitagliptin (OGTT AUC) / AUC in OGTT, X (arithmetic mean): 50 mg/kg oral for six days; for AUC in OGTT, X (arithmetic mean): 2 h before glucose loading, AUC 0-120 min
Procedure: The tested compounds were given daily by oral gavage for 6 consecutive days. On day 6, the overnight fasted diabetic mice were pretreated with the 6th oral dose of the tested compounds. Then an oral glucose was loaded (2 g/kg/10 ml b.w.) 2 h after drug treatment. Blood glucose levels were determined using the Accu-check Go® (Roche Diagnostics, Michigan, USA). Samples were collected just before drug administration (Fasting Blood glucose), then 2 h after drug treatment and before glucose administration. Sample collection was continued at 20, 40, 60 and 120 min intervals after glucose loading.
• b. Group 1: Animals of this group are 14 h overnight-fasted normoglycemic mice received the vehicle (1% CMC-Na) at a dosing volume of 10 ml/kg/day for six consecutive days. • c. Group 2: Overnight-fasted diabetic mice received the vehicle (1% CMC-Na) at a dosing volume of 10 ml/kg/day for six consecutive days and served as a negative control. • d. Group 3: Overnight-fasted diabetic mice received sitagliptin at a dose of 50 mg/kg/day for six consecutive days and served as positive control. • e. Groups 4-17: Animals in these groups were overnight-fasted diabetic mice and received the tested compounds 128, 129, 130, 131, at a dose of 50 mg/kg/day for six consecutive days (volume of 10 ml/kg). Effect on Blood Glucose Level after Introduction of Food for One Hour (≈Meal Tolerance Test) Rational of the Test

STZ-diabetic mice = test: Fasting blood glucose of diabetic mice during six days of treatment; conditions: for activity in controlling the rise of blood glucose levels in streptozotocin diabetic animals (in words) / control of fasting blood sugar compared with sitagliptin and the other compounds (in words): 50 mg/kg/day; for activity in controlling the rise of blood glucose levels in streptozotocin diabetic animals (in words): 6-day interval; for control of fasting blood sugar compared with sitagliptin and the other compounds (in words): 6 days; for Blood glucose level, fasting: 50 mg/kg/day oral, diabetic mice, mean ± SEM
Description: Our objective was to test the efficacy of the synthesized compounds for their potential to reduce blood glucose in STZ-diabetic mice. The synthesized compounds Nos. 128, 129, 130, 131,140, 142 were expected to act through the inhibition of the DPP-IV enzyme, which is responsible for the degradation of the entero-peptide GLP-I. In turn, GLP-I increases insulin and decreases glucagon release from the pancreatic islets (β and α-cells respectively). So this part of the project was designed to study the effect of the synthesized gliptin simulated compounds on blood glucose levels and their efficacy to increase glucose utilization in diabetic mice through: • a. The effect of the tested compounds in a dose of 50 mg/kg/day on fasting blood glucose blood levels of diabetic mice during six days of treatment. • b. Oral glucose tolerance test (OGTT) through oral glucose loading, 2 h after treatment with single oral dose (50 mg/kg) of the tested compounds in 14 h overnight fasted mice. • c. OGTT through oral glucose loading, 2 h after treatment with the 6th oral dose (50 mg/kg) of the tested compounds in 14 h overnight fasted mice. • d. The effect of the pretreatment with the tested compounds at an oral dose of 50 mg/kg on blood glucose levels, 3 h before and 3 h after meal feeding (feeding for one hour only, then food was removed immediately) in 14 h overnight-fasted diabetic mice.
(§1) Blood samples were collected from the tail vein and the blood glucose level was determined. Curves of blood glucose levels (mg/dL) versus the time intervals (min) were constructed and the area under the curves (AUCs) were calculated by the method of calculation embedded in GraphPad Prism® v. 5.0 (GraphPad Software, San Diego, Calif., USA). AUCs of the curves of the different groups were compared and tested for significance against control groups.
All data are presented as means±SEM. Statistical significance was evaluated by analysis of variance (ANOVA) followed by Tukey-Kramer's post hoc test for multiple comparisons. The “t” of the paired data was used to test the significance of the values of the fasting blood glucose compared to the values before treatment. Statistical significance was accepted at a level of p<0.05.

[2] = system: 14 h overnight-fasted diabetic mice; test: Blood glucose after introduction of food for one hour (meal tolerance test); conditions: for antihyperglycemic activity after introduction of food (blood glucose rise and total AUC(0-180), in words): 50 mg/kg, 3 h before introduction of food; for Area under the curve AUC(0-180) after meal feeding: Day 1, 50 mg/kg oral, 3 hr pretreated
Procedure: The rational of this test was to determine the ability of the tested compounds to modulate glucose utilization after the introduction of food, after 3 h of drug administration to 14 h overnight-fasted mice (feeding with normal diet was done for 1 hr only, then food was removed during the remaining time of the test). This model is analogous to oral glucose tolerance tests (OGTT) used clinically to evaluate glycemic control, except that the meal was composed of fats, proteins and carbohydrates, and thus was a more realistic representation of the nutritional makeup of normal food. The main purpose is that during meal digestion, food contents e.g. carbohydrates, proteins and fats, were reported to cause an increase in the production of the GLP-I from the L-cells in ileum and colon. The produced GLP-I goes into circulation directly and affects insulin secretion from pancreatic β-cells. Both the GPL-I and insulin levels are expected to be high especially in the presence of a […] inhibitor.
Animals were Distributed Between 17 Groups (n=6) as Follows: • a. Group 1. Animals of this group were overnight-fasted normoglycemic mice and received the vehicle (1% CMC-Na) at a volume of 10 ml/kg/day for 4 consecutive days. • b. Group 2: overnight-fasted diabetic mice received the vehicle (1% CMC-Na) at a volume of 10 ml/kg/day for 4 consecutive days and served as a negative control. • c. Group 3: overnight fasted diabetic mice received sitagliptin at a dose of 50 mg/kg/day for 4 consecutive days in 1% CMC (in a volume of 10 ml/kg) and served as positive control. • d. Groups 4-19: Animals of these groups were overnight-fasted diabetic mice and received the tested compounds 128, 129, 130, 131,140, 142 at a dose of 50 mg/kg/day for 4 consecutive days in 1% CMC (volume of 10 ml/kg). Food was introduced for one hour only then food was removed immediately. Blood glucose levels were determined just before and 3 h after drug administration and then at 0, 60, 120 and 180 min after meal. Blood Sampling and Blood Glucose Determination
as §1

[3] = system: 14 h overnight fasted diabetic mice; test: Oral glucose tolerance test (OGTT) after single dose; conditions: for glucose-lowering activity in OGTT compared with sitagliptin (in words): single dose 50 mg/kg; for Relative potency to sitagliptin (OGTT AUC) / AUC in OGTT, % change from diabetic control / AUC in OGTT, Δ from diabetic control / AUC in OGTT, X (arithmetic mean): single oral dose 50 mg/kg; for AUC in OGTT, X (arithmetic mean): AUC 0-120 min
Procedure: The oral glucose tolerance test was done in 14 h overnight fasted diabetic mice that were pretreated with a single oral dose of the tested compounds. Each of the tested agents was suspended in sodium carboxymethyl cellulose (CMC-Na) (1% in distilled water) and the dosing volume was adjusted to 10 ml/kg body weight per mouse. Then an oral glucose load was administered (2 g/kg) 2 h after drug treatment. Blood glucose levels were determined using the Accu-check Go® (Roche Diagnostics, Michigan, USA). Blood samples were collected just before drug administration (Fasting Blood glucose), then 2 h after drug treatment and before glucose loading. Blood samples collection was continued at 20, 40, 60 and 120 min intervals after glucose loading.
Animals were distributed between 17 groups (n=6) as follow: • a. Group 1: Animals were 14 h overnight-fasted normoglycemic mice and vehicle-treated (1% CMC-Na) at a dose of 10 ml/kg. • b. Group 2: Overnight fasted diabetic mice received the vehicle (1% CMC-Na) at a dosing volume of 10 ml/kg and served as a negative control. • c. Group 3: Overnight fasted diabetic mice received sitagliptin at a dose of 50 mg/kg in 1% CMC (in a volume of 10 ml/kg) and served as positive control. • a. Groups 4-17: Animals of these groups were overnight fasted diabetic mice received the tested compounds 128, 129, 130, 131, at a dose of 50 mg/kg in 1% CMC (volume of 10 ml/kg).

| SMILES | AUC in OGTT, % change from diabetic control [1] | AUC in OGTT, Δ from diabetic control [1] | Relative potency to sitagliptin (OGTT AUC) [1] | AUC in OGTT, X (arithmetic mean) [1] | activity in controlling the rise of blood glucose levels in streptozotocin diabetic animals (in words) (STZ-diabetic mice) | control of fasting blood sugar compared with sitagliptin and the other compounds (in words) (STZ-diabetic mice) | antihyperglycemic activity after introduction of food (blood glucose rise and total AUC(0-180), in words) [2] | Area under the curve AUC(0-180) after meal feeding [2] | glucose-lowering activity in OGTT compared with sitagliptin (in words) [3] | Relative potency to sitagliptin (OGTT AUC) [3] | AUC in OGTT, % change from diabetic control ([3]; 2 h before glucose loading) | AUC in OGTT, Δ from diabetic control ([3]; 2 h before glucose loading) | AUC in OGTT, X (arithmetic mean) ([3]; 2 h before glucose loading) | relative potency in OGTT compared with sitagliptin (in words) ([1]; 6 consecutive days, 50 mg/kg) | control of fasting blood sugar compared with sitagliptin and the other compounds (in words) (STZ-diabetic mice; listed as 131) | Blood glucose level, fasting (STZ-diabetic mice; Day 4) | Blood glucose level, fasting (STZ-diabetic mice; Day 5) | Blood glucose level, fasting (STZ-diabetic mice; Day 6) | reduction in the total AUC compared to the diabetic control mice ([3]; single dose, 2 h before glucose loading, AUC 0-120) |
| --- | --- | --- | --- | --- | --- | --- | --- | --- | --- | --- | --- | --- | --- | --- | --- | --- | --- | --- | --- |
| O=C(NCCC(=O)N1CCn2c(nnc2C(F)(F)F)C1)c1cccc(Cl)c1 [GLP-129] | −11.76% | -6197 mg·min/dL | 0.31 | 46458 mg·min/dL | significant activity | comparable to that of sitagliptin | significant antihyperglycemic activity | 73248 ± mg · dL^−1 · min | less potent than sitagliptin | 0.45 | −10.93% | -5585 mg·min/dL | 45480 mg·min/dL |  |  |  |  |  |  |
| O=C(NCC(=O)N1CCn2c(nnc2C(F)(F)F)C1)c1ccc(Cl)cc1 [GLP-131] | −49.59% | -26113 mg·min/dL | 1.31 | 26542* mg · dL^−1 · min | significant activity | most consistent and extended activities | significant antihyperglycemic activity | 56340 ± mg · dL^−1 · min | higher glucose-lowering activity than sitagliptin | 1.52 | −36.88% | -18835 mg·min/dL | 32230* mg · dL^−1 · min | comparable or higher relative potency than sitagliptin | comparable to that of sitagliptin |  |  |  |  |
| O=C(NCC(=O)N1CCn2c(nnc2C(F)(F)F)C1)c1cccc(Cl)c1 [GLP-128] | −11.93% | -6287 mg·min/dL | 0.32 | 46368 mg·min/dL | significant activity | least effective | significant antihyperglycemic activity | 69336 ± mg · dL^−1 · min | higher glucose-lowering activity than sitagliptin | 1.2 | −29.15% | -14887 mg·min/dL | 36178* mg · dL^−1 · min |  |  | 195.00 ± 27.49 mg/dL | 200.60 ± 23.21 mg/dL | 188.60 ± 15.86 mg/dL |  |
| N[C@@H](CC(=O)N1CCn2c(nnc2C(F)(F)F)C1)Cc1cc(F)c(F)cc1F [Sitagliptin, sitagliptin, reference compound] | −37.85% | -19932 mg·min/dL | 1 | 32723 mg·min/dL |  |  | significant antihyperglycemic activity | 51776 ± mg · dL^−1 · min |  | 1 | −24.20% | -12362 mg·min/dL | 38703* mg · dL^−1 · min |  |  |  |  |  | 24.2% |
